Converted amounts (≈) assume the structure as drawn. Read-outs that look alike come from different tables or passages of the source.
How the values were obtained:
[1] = format: physicochemical
Protocol: All biochromatographic experiments were performed using the gradient IAM protocols developed by Valkó and co-workers and previously implemented in this laboratory. Analyses were carried out on a Prominence-i LC-2030C 3D HPLC system (Shimadzu, Tokyo, Japan) controlled by LabSolutions software (v6.81, Kyoto, Japan) and equipped with an IAM.PC.DD2 column (10 × 4.6 mm, 10.0 µm) packed on the newer ‘Type B’ silica support and protected by a guard column (Regis Technologies, Morton Grove, IL, USA).
Mobile phase A consisted of 50 mM ammonium acetate (VWR International, Leuven, Belgium) in water, adjusted to physiological pH 7.4 with concentrated ammonia solution (Avantor Performance Materials Poland S.A., Gliwice, Poland). Ultrapure water with a resistivity of 18.2 MΩ was obtained from a Milli-Q water purification system (Merck Millipore, Darmstadt, Germany). For phospholipid affinity measurements, mobile phase B was HPLC-grade acetonitrile (Chempur, Piekary Śląskie, Poland). A linear gradient from 0 to 85% B was applied over 5.25 min, followed by an isocratic hold at 85% B for 0.5 min. The mobile phase flow rate was set at 1.5 mL/min, and the column temperature was maintained at 30 °C.
The reference substances used to calculate CHIIAM values were obtained as follows: acetanilide, butyrophenone and octanophenone from Alfa Aesar (Haverhill, MA, USA); acetophenone and paracetamol from Sigma-Aldrich (Steinheim, Germany); and heptanophenone, hexanophenone, propiophenone and valerophenone from Acros Organics (Pittsburgh, PA, USA).
Dimethyl sulfoxide (Avantor Performance Materials Poland S.A., Gliwice, Poland) was used to dissolve the analytes and to prepare stock solutions at a concentration of 200 µg/mL. UV detection was performed in the range 190–300 nm. The injection volume was 5 µL. Each compound was analyzed in duplicate, and the variation in retention times was lower than 2%. Raw retention times for the pesticides and reference standards are available in Zenodo platform https://doi.org/10.5281/zenodo.17672582.

[2] = system: Daphnia magna; conditions: cited from earlier work
[3] = system: rainbow trout (Oncorhynchus mykiss); conditions: 96 h, ref Pesticide Properties DataBase (PPDB; University of Hertfordshire), cited from earlier work
[4] = system: fish; conditions: cited from earlier work
[5] = IAM.PC.DD2 column, gradient 0-85% acetonitrile, 50 mM ammonium acetate pH 7.4, 30 °C
[6] = 48 h, Daphnia magna, ref Pesticide Properties DataBase (PPDB; University of Hertfordshire)
[7] = in fish, dimensionless, ref Pesticide Properties DataBase (PPDB; University of Hertfordshire)

| Compound | LC50 Fish [3] [µg/mL] | CHIIAM (IAM chromatographic hydrophobicity index) [1, 5] | EC50 Daphnia [2, 6] [ng/mL] | BCF (bioconcentration factor) [4, 7] | other results |
| --- | --- | --- | --- | --- | --- |
| COc1c(Cl)ccc(Cl)c1C(=O)O [Dicamba, dicamba] | 100 (≈ 452 µM) |  |  |  | CHIIAM (IAM chromatographic hydrophobicity index) ([1]; pH 7.4): 8.2; EC50 Daphnia ([2]; in vivo): 41000 ng/mL (≈ 185 µM); BCF (bioconcentration factor) ([4]; in vivo): 15 |
| CCOP(=S)(OCC)Oc1cc(C)nc(C(C)C)n1 [Diazinon, diazinon] | 3.1 (≈ 10.2 µM) | 39.3 | 1 (≈ 0.00329 µM) | 500 | EC50 Daphnia ([2]; 48 h, Daphnia magna, ref Pesticide Properties DataBase (PPDB; University of Hertfordshire), listed as diazinon): 0.1 to 1 ng/mL |
| CC(C)C1(C)N=C(c2ncccc2C(=O)O)NC1=O (stereo not drawn) [Imazapyr, imazapyr] | 100 (≈ 383 µM) | −12.1 | 100000 (≈ 383 µM) | 2.54 | EC50 Daphnia ([2]; 48 h, Daphnia magna, ref Pesticide Properties DataBase (PPDB; University of Hertfordshire), listed as imazapyr): ≈ 100 mg/L |
| COP(=S)(OC)SCn1nnc2ccccc2c1=O [Azinphos-methyl, azinphos-methyl] |  |  | 1.1 (≈ 0.00347 µM) | 40 |  |
| CC1(C)C(C=C(Cl)Cl)C1C(=O)OCc1cccc(Oc2ccccc2)c1 (stereo not drawn) [Permethrin, permethrin] | 0.0125 (≈ 0.0319 µM) | 54.8 | 0.6 (≈ 0.00153 µM) | 300 |  |
| CCNc1nc(Cl)nc(NC(C)(C)C)n1 [Terbuthylazine, terbuthylazine] | 2.2 (≈ 9.58 µM) | 34.3 | 21200 (≈ 92.3 µM) | 34 | BCF (bioconcentration factor) ([4]; in fish, dimensionless, ref Pesticide Properties DataBase (PPDB; University of Hertfordshire), listed as terbuthylazine): ≈ 34 |
| O=C(Nc1ccccc1-c1ccc(Cl)cc1)c1cccnc1Cl [Boscalid, boscalid] | 2.7 (≈ 7.87 µM) | 38.0 | 5330 (≈ 15.5 µM) | 107 | BCF (bioconcentration factor) ([4]; in fish, dimensionless, ref Pesticide Properties DataBase (PPDB; University of Hertfordshire), listed as boscalid): ≈ 107 |
| CC1(C)C(C(=O)OC(C#N)c2cccc(Oc3ccccc3)c2)C1(C)C (stereo not drawn) [Fenpropathrin, fenpropathrin] | 0.0023 (≈ 0.00658 µM) | 48.6 | 0.53 (≈ 0.00152 µM) | 1100 | LC50 Fish ([3]; listed as fenpropathrin): ≈ 0.0023 mg/L |
| CCOP(=S)(OCC)Oc1nc(Cl)c(Cl)cc1Cl [Chlorpyrifos, chlorpyrifos] | 0.025 (≈ 0.0713 µM) | 48.1 | 0.1 (≈ 0.000285 µM) | 1374 | EC50 Daphnia ([2]; 48 h, Daphnia magna, ref Pesticide Properties DataBase (PPDB; University of Hertfordshire), listed as chlorpyrifos): 0.1 to 1 ng/mL |
| CNC(=O)Oc1cccc2ccccc12 [Carbaryl, carbaryl] |  |  | 6.4 (≈ 0.0318 µM) | 44 | EC50 Daphnia ([2]; 48 h, Daphnia magna, ref Pesticide Properties DataBase (PPDB; University of Hertfordshire), listed as carbaryl): ≈ 0.0064 mg/L |
| O=[N+]([O-])NC1=NCCN1Cc1ccc(Cl)nc1 [Imidacloprid, imidacloprid] | 83 (≈ 325 µM) | 14.2 | 85000 (≈ 332 µM) | 0.61 | BCF (bioconcentration factor) ([4]; in fish, dimensionless, ref Pesticide Properties DataBase (PPDB; University of Hertfordshire), listed as imidacloprid): ≈ 0.6 |
| CCCC1COC(Cn2cncn2)(c2ccc(Cl)cc2Cl)O1 (stereo not drawn) [Propiconazole, propiconazole] | 2.6 (≈ 7.6 µM) | 38.7 | 10200 (≈ 29.8 µM) | 116 |  |
| CC(C)(C)C(O)(CCc1ccc(Cl)cc1)Cn1cncn1 (stereo not drawn) [Tebuconazole, tebuconazole] | 4.4 (≈ 14.3 µM) | 39.5 | 2790 (≈ 9.06 µM) | 78 |  |
| COP(=S)(OC)Oc1ccc([N+](=O)[O-])c(C)c1 [Fenitrothion, fenitrothion] | 1.3 (≈ 4.69 µM) | 38.1 | 8.6 (≈ 0.031 µM) | 29 |  |
| CCNc1nc(Cl)nc(NC(C)C)n1 [Atrazine, atrazine] | 4.5 (≈ 20.9 µM) | 27.4 | 85000 (≈ 394 µM) | 4.3 | EC50 Daphnia ([2]; 48 h, Daphnia magna, ref Pesticide Properties DataBase (PPDB; University of Hertfordshire), listed as atrazine): ≈ 85 mg/L |
| C/C(=N\C#N)N(C)Cc1ccc(Cl)nc1 [Acetamiprid, acetamiprid] | 100 (≈ 449 µM) | 13.4 | 49800 (≈ 224 µM) |  |  |
| N#Cc1c[nH]cc1-c1cccc2c1OC(F)(F)O2 [Fludioxonil, fludioxonil] | 0.23 (≈ 0.927 µM) | 43.5 | 400 (≈ 1.61 µM) | 336 |  |
| CO/C=C(/C(=O)OC)c1ccccc1Oc1cc(Oc2ccccc2C#N)ncn1 [Azoxystrobin, azoxystrobin] | 0.47 (≈ 1.17 µM) | 31.6 | 230 (≈ 0.57 µM) |  |  |
| Cc1c(COC(=O)[C@@H]2[C@H](/C=C(\Cl)C(F)(F)F)C2(C)C)cccc1-c1ccccc1 (racemic) [Bifenthrin, bifenthrin] | 0.00026 (≈ 0.000615 µM) | 54.4 | 0.11 (≈ 0.00026 µM) | 1703 | CHIIAM (IAM chromatographic hydrophobicity index) ([1]; IAM.PC.DD2 column, gradient 0-85% acetonitrile, 50 mM ammonium acetate pH 7.4, 30 °C, listed as bifenthrin): > 48; LC50 Fish ([3]; listed as bifenthrin): ≈ 0.00026 mg/L |

— publication PMC12821709, “Biomimetic Chromatography as a High-Throughput Tool for Screening Bioaccumulation and Acute Aquatic Toxicity of Pesticides” (Journal of Xenobiotics, 2025)
